This is an account of results in publication PMC5630632, “Assessing inhibitors of mutant isocitrate dehydrogenase using a suite of pre-clinical discovery assays” (Scientific Reports, 2017).

In brackets after ≈: the same amount, converted by molar mass. Read-outs that look alike come from different tables or passages of the source. Where only a bound is given, the exact number is not on record here.

In data set [1] the test system is RBE (R132S) cells. Put plainly: 2-HG production, monolayer (2D), mass spectrometry, RBE. It is filed as cell-based. As to conditions: Homo sapiens, mass spec; for Emax: read-out: 2D Cellular 2HG Production (Mass Spec) RBE (R132S) % EMax; for EC50: read-out: 2D Cellular 2HG Production (Mass Spec) RBE (R132S) EC50. As for the experimental part: (Supplementary Table 2). Inhibition of the target was assessed by quantitative measurement of 2-HG levels in extracellular media of monolayer (or 2-dimentional, 2D) cultures following incubation (48 hrs) with inhibitors. […]
treated 96-well plates (Corning) at a density of 8000 cells/well/100 μL . Plates were sealed with gas permeable membranes (Research Products International Corp.) and incubated at 37°C, 5% CO2, 90% RH for 24 hr. Growth media was subsequently aspirated and replaced with 100 μL of a solution of growth media cont aining either vehicle DMSO or indicated mIDH1 inhibitor. Each compound was tested as an 8-point dilution series ranging from 5 μM to 2.3 nM. After 48 hr treatment, 75 μL of the exhausted media was collected and snap frozen on dry ice. Samples were analyzed by LC-MS for 2- HG concentrations using Rapidfire / Mass Spectrometry (Quintara) (4) . Remaining cells were assessed for viability by adding 100 μL of fresh media and 50 μL of CellTiter-Glo reagent (Promega) as per manufacturer instructions. Luminescence was read using a Vi ewLux High-throu ghpu t CCD imager (PerkinElmer) equipped with clear filters.

For data set [2], the system named is JJ012 (R132G) 3D cellular spheroids. Put plainly: 2-HG production, spheroids (3D), JJ012. The class given is cell-based. As to conditions: Homo sapiens; 3D spheroid, mass spec. From the text: To evaluate the effect of mIDH1 inhibitors in more relevant models of solid tumors, we adapted a 3-dimensional (3D) multicellular tumor spheroid assay to monitor spheroid formation and 2-HG production. Small molecules can have diminished efficacy in multicellular tumor spheroid models due to limited penetration and the heterogeneous nature of the 3D tumor spheroid[39],[40]. We began by testing the 6 aforementioned cell lines for their ability to form spheroids in ultra-low attachment plates at varying cell concentrations (1000–5000 cells/well). […] Overall, spheroids produced less extracellular 2-HG than cells cultured in monolayer (Fig. 7B).
Using these simple 3D models of solid tumors, we assessed the ability of inhibitors to reduce 2-HG production.
2-HG production: Cells grown as spheroids (3D)
(RBE) cells/well/150 μ L to form spheroids. Of note, we were not able to obtain spheroids using SNU1079 cells. Plates were sealed with gas permeable membranes, centrifuged at 40 rcf for 1 min, and incubated at 37°C, 5% CO2, 90% RH for 96 (HT108 0, U87 and JJ01 2) or 4 8 (RBE) h r. Cells were washed (by remo ving 10 0 μL of exhausted media and re placing it with 100 μL of growth media, twice) and treated with 50 μL of a solution of media containing the indicated compounds. Each compound was tested as an 8-point dilution series ranging from 5 μM to 2.3 nM.
After 96 hr of t reatment, 100 μL of the exhausted media was collected and snap frozen on dry ice. Samples were analyzed by LC -MS for 2- HG concentrations using Rapidfire /Mass Spectrometry (Quintara) ( 4) . Plates were first imaged on the Celigo Imaging Cytometer (Ne xcelom Bioscience) to quantify area of each spheroid. Cell viability was subsequently measured using the CellTiter-Glo assay with some modifications: 50 μL of a solution of CellTiter-Glo reagent containing a final concentration of 0.025 % Trypsin (Thermo Sci entific) was added to each well and plates were shaken at 500 rpm for 30 min before reading.

The nature of data set [3]: High-throughput kinetic solubility (µSOL), pH 7.4. As to conditions: aqueous solution pH 7.4, pH 7.4, aqueous buffer, kinetic from dmso stock; read-out: HT Kinetic Solubility, Solubility. The class given is physicochemical. The procedure:
High-Throughput kinetic solubility test assay
Pion’s patented µSOL assay for kinetic solubility determination was used. In this assay, the classical saturation shake- flask solub ility method was adapted to a 96-well microtiter plate format and a co-solvent method with n- propanol as the […] was utilized. Test compounds were prepared in 10 mM DMSO solutions (45 µ L), and diluted with the co-solve nt to a final drug conce ntration of […]
Samples are incubated at room temperature for 6 hrs t o achieve equilibrium. The samples were then filtered to remove any precipitate formed. The concentrat ion of the compound in the filtrate was measured by UV ab sorbance. […]
used for quantitation of unknown drug concent ration in filtrate. Spectroscopically pure 1- Propanol was used as acosolvent to suppress precipitation in the reference

The nature of data set [4]: Microsomal metabolic stability, mouse. It is filed as in vitro ADME. The following applies: pH 7.4; mouse liver microsomes. In general terms: Liver microsomes are vesicles of endoplasmic reticulum, rich in cytochrome P450 enzymes.
Data set [5] in a line: Microsomal metabolic stability, rat. As to conditions: pH 7.4; rat liver microsomes. The class given is in vitro ADME.
Data set [6] deals with T1, hERG channel (Homo sapiens, UniProt Q12809).
T1 construct: host or cells: U2OS cells (ATCC)
Put plainly: hERG FluxOR-based thallium flux assay. The class given is cell-based. The following applies: for EC50 / Emax: In Vitro Toxicity; for Emax: human, U2OS cells transduced with hERG-BacMam virus. (In general: The hERG channel carries a current that helps repolarise heart muscle cells.)

Data set [7] can be described thus: in vitro. The following applies: human, Caco-2.
Data set [8] is described as follows: Human hepatocyte cytotoxicity (CellTiter-Glo, 72 hr). The following applies: both, human, cryopreserved human hepatocytes. Background: ATP-based viability assays read luminescence as a measure of living cells.
In data set [9] the test system is human hepatocytes. The data set is described as above. As to conditions: Homo sapiens, Hepatocyte, read-out: Human Hepatocytes EC50.
Data set [10] addresses P-glycoprotein (P-gp, MDR1, ABCB1) in MDCK cells (Homo sapiens, UniProt P08183). The data set is described as follows: Bidirectional MDCK-MDR1 permeability assay (Cyprotex). The following applies: with tariquidar (1 µM) or verapamil (100 µM); result in words.
Data set [11] addresses T2, IDH2 WT (Homo sapiens, UniProt P48735).
T2 sequence (P48735 40-452): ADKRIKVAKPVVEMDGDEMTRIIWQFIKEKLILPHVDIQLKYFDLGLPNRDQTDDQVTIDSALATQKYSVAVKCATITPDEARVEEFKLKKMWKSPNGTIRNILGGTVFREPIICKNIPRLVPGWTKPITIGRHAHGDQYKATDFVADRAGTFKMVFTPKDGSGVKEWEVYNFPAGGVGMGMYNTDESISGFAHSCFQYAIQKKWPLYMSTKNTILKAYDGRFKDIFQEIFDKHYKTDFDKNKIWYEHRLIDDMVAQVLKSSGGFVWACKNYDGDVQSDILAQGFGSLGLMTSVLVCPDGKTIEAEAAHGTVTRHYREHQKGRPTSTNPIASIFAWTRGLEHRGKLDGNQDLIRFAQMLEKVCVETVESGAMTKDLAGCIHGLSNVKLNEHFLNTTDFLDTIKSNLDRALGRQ
The data set is described as follows: Wild type IDH2 enzyme assay, diaphorase/resazurin coupled.

T1 sequence (Q12809 whole entry): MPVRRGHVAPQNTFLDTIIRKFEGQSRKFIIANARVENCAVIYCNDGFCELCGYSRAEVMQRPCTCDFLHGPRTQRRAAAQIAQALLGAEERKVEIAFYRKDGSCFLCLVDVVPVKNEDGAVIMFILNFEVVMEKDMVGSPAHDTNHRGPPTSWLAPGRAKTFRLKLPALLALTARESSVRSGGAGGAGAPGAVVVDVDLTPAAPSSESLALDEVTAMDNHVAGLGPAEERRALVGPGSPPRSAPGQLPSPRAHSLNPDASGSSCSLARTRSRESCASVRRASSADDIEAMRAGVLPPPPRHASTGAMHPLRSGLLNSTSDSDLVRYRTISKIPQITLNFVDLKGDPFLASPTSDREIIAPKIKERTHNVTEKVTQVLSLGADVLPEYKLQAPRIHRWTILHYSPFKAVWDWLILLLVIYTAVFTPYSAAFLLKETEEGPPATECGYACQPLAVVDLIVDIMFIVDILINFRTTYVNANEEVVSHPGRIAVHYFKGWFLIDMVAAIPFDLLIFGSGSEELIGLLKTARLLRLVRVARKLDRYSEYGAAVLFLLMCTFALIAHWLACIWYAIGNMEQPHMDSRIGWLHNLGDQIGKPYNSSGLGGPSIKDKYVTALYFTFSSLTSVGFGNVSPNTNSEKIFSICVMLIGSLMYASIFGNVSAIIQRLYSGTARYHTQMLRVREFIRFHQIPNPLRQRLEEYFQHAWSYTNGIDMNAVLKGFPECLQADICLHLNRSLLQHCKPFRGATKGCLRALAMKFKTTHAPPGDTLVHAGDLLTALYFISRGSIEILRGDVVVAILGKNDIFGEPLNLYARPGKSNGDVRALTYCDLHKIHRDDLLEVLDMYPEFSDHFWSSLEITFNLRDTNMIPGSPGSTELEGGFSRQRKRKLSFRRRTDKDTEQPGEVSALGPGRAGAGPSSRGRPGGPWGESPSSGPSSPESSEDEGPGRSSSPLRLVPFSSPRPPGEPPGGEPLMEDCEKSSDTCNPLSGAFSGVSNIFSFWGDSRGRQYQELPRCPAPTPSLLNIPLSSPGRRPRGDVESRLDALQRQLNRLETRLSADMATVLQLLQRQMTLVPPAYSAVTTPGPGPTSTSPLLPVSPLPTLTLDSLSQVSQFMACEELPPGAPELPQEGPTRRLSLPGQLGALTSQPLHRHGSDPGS
Chain of P-glycoprotein (P-gp, MDR1, ABCB1) in MDCK cells (P08183 whole entry): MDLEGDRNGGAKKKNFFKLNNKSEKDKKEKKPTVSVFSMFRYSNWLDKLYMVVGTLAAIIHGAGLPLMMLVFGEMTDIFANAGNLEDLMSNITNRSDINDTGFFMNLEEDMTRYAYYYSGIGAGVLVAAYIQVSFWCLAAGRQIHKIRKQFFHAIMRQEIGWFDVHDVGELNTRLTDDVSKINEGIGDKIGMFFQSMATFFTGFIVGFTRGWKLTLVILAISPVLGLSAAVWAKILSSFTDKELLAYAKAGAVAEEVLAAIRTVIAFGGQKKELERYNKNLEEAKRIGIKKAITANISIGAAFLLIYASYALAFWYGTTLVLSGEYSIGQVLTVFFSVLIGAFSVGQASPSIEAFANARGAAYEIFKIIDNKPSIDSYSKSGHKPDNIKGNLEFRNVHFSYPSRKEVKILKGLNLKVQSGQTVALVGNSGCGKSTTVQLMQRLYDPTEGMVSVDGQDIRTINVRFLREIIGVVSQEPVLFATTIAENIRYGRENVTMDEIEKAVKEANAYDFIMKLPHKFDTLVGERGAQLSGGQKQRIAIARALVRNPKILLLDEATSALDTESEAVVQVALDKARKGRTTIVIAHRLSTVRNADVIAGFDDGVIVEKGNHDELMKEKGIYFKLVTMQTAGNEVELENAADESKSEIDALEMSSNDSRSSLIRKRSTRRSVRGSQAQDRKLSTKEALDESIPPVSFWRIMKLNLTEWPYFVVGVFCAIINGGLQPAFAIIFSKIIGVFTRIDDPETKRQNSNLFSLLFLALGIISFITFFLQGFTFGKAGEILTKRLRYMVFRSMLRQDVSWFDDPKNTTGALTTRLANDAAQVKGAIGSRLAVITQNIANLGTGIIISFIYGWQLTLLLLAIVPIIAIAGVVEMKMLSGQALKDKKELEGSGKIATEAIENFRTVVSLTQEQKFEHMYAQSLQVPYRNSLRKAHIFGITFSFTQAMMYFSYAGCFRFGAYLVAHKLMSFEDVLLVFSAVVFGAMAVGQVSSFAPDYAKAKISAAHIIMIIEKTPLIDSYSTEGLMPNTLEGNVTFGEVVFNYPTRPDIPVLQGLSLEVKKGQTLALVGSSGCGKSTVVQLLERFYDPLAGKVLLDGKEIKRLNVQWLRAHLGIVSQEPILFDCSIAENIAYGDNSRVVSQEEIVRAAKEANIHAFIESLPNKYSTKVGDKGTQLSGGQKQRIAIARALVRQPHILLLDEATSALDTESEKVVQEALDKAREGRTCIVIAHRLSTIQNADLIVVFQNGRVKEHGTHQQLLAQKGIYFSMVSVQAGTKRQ

As a reminder, the Emax is the greatest response seen or fitted, relative to the assay's reference. Broadly, the EC50 is the concentration giving half of the maximal effect. The solubility (kinetic) is the concentration staying in solution when a stock, usually in DMSO, is diluted into the medium. In general, half-life refers to the time needed for the level to fall by half in the phase considered. Higher therefore signals slow loss. For orientation: Papp A→B means how fast a substance crosses the layer from the apical side. Read a low Papp A→B as poor permeation. The Papp B→A is the apparent permeability from the basolateral to the apical side of a cell layer. As to `N#Cc1ccnc(N2C(=O)CC[C@H]2C(=O)N(c2cncc(F)c2)[C@H](C(=O)NC2CC(F)(F)C2)c2ccccc2Cl)c1` [AG-120, Ivosidenib], the Emax was determined as 89.1% in [1], 79.8% in data set [2], 10.1% in data set [6] and 24.7 ± 6.7% in data set [11] (read-out: IDH2 WT % EMax). The EC50 in data set [1] was 0.22 µM; in data set [2] it was 0.024 µM; in data set [6] it was > 30 µM; in data set [9], > 30 µM; in [11], > 30 µM. The solubility (kinetic) at 6 h in data set [3] was 105 µM (≈ 61.3 µg/mL). Moreover, the half-life at 1 µM in data set [4] and in data set [5] was > 120 min each time. In [7], the Papp A→B at 2 h, 10 µM is 0.85 ×10⁻⁶ cm/s. In addition, in data set [7], the Papp B→A at 2 h, 10 µM amounted to 47.4 ×10⁻⁶ cm/s. For the same compound, in data set [8], the Emax at 72 h turned out to be 66.8%. Besides, in [10], the “basolateral/apical transport imbalance in the presence of P-gp inhibitors” value was “completely reversed”.

For `Cc1ccccc1C(C(=O)NC1CCCCC1)N(C(=O)Cn1ccnc1C)c1cccc(F)c1` (centres unmarked) [AGI-5198], the Emax was 69.1% in data set [1], 113% in [2], 3.4% in data set [6] and 25.2 ± 9.5% in data set [11] (read-out: IDH2 WT % EMax). In addition, the EC50 in [1] was 2 µM; in [2] it was 0.428 µM; in [6] it was > 30 µM; in data set [9] it was 11.6 µM; in [11] it was > 30 µM. The kinetic solubility at 6 h in data set [3] was determined as 26.2 µM (≈ 12.1 µg/mL). Also, the half-life at 1 µM in data set [4] came to 3.5 min; in data set [5], 4.4 min. For the same compound, the Papp A→B at 2 h, 10 µM in data set [7] is 0.99 ×10⁻⁶ cm/s. This compound also came in with a Papp B→A at 2 h, 10 µM in data set [7] of 22.8 ×10⁻⁶ cm/s. The same compound registered an Emax at 72 h in data set [8] of 82.8%.

Take `Cc1ccccc1C(C(=O)NC1CCCCC1)N(C(=O)Cn1cnc2ccccc21)c1cccc(F)c1` (centres unmarked) [Agios 135]: the Emax in [1] is 106%; in data set [2], 95.6%; in [6], 8.1%; in data set [11] (read-out: IDH2 WT % EMax), 18 ± 7.1%. Moreover, the EC50 is 0.81 µM in [1]; 0.236 µM in data set [2]; > 30 µM in data set [6]; 14.5 µM in data set [9]; > 30 µM in data set [11]. The kinetic solubility at 6 h in [3] turned out to be 5.8 µM (≈ 2.89 µg/mL). The half-life at 1 µM is 2.9 min in data set [4] and 1.4 min in [5]. In addition, the Papp A→B at 2 h, 10 µM in data set [7] is 0.3 ×10⁻⁶ cm/s. The compound further displayed a Papp B→A at 2 h, 10 µM in [7] of 3.8 ×10⁻⁶ cm/s. In data set [8], the Emax at 72 h came out at 91.5%.

For orientation: IC50 means the midpoint of a concentration-inhibition curve. Lower therefore signals greater potency in that assay. Turning to `COc1c(C)cc(NC(=O)c2nn(Cc3ccc(F)cc3)c3c2CN(C(=O)c2ccc[nH]2)C[C@]3(C)C(N)=O)cc1C` [GSK864], the Emax in data set [1] amounted to 102%; in data set [2] it was 102%; in [6], 44.9%; in data set [11] (read-out: IDH2 WT % EMax), 23.9 ± 2.3%. Also, the EC50 was 0.532 µM in [1]; 0.36 µM in data set [2]; 4.83 µM in data set [6]; 24.9 µM in data set [9]; > 30 µM in data set [11]. Also, the kinetic solubility at 6 h in [3] came out at 0.175 µM (≈ 0.0978 µg/mL). In addition, the half-life at 1 µM in data set [4] was determined as 12.7 min; in [5], 72.7 min. For the same compound, the IC50 in data set [6] (U2OS cells, thallium flux) was found to be 4.7 µM. The compound also came in with a Papp A→B at 2 h, 10 µM in data set [7] of 1.63 ×10⁻⁶ cm/s. The compound further registered a Papp B→A at 2 h, 10 µM in data set [7] of 8.12 ×10⁻⁶ cm/s. In data set [8], this compound showed an Emax at 72 h of 114%.

For `Cc1ccccc1[C@@H](C(=O)NC1CCCC1)N(C(=O)Cn1cnc2ccccc21)c1cccc(F)c1` [ML309], the Emax in [1] amounted to 101%; in data set [2], 92%; in data set [6], 8.2%; in [11] (read-out: IDH2 WT % EMax) it was 18.8 ± 7.7%. Also, the EC50 in data set [1] was 0.97 µM; in [2] it was 0.218 µM; in [6] it was > 30 µM; in data set [9] it was 20.3 µM; in data set [11] it was > 30 µM. Also, the solubility (kinetic) at 6 h in data set [3] was determined as 26.2 µM (≈ 12.7 µg/mL). In addition, the half-life at 1 µM in data set [4] amounted to 2.7 min; in data set [5], 1.8 min. The compound also gave a Papp A→B at 2 h, 10 µM in [7] of 4.9 ×10⁻⁶ cm/s. Also, in data set [7], the Papp B→A at 2 h, 10 µM stood at 14.1 ×10⁻⁶ cm/s. Moreover, the Emax at 72 h in data set [8] came out at 104%.

For `CC(=O)N1CCN(Cc2ccc([C@H](C)Nc3nccc(N4C(=O)OC[C@@H]4C(C)C)n3)cc2)CC1` [Norvartis 556], the Emax in [1] came to 103%; in data set [2], 104%; in [6], 12.1%; in data set [11] (read-out: IDH2 % EMax), 20.7%. Further, the EC50 in [1] was 0.912 µM; in data set [2] it was 0.678 µM; in data set [6] it was > 30 µM; in data set [9] it was > 30 µM; in [11] (read-out: IDH2 EC50, Biochemical, wild type IDH2), > 30 µM. Also, the kinetic solubility at 6 h in data set [3] stood at 148 µM (≈ 69.1 µg/mL). Also, the half-life at 1 µM in data set [4] came to 10.3 min; in data set [5], 24.5 min. This compound also showed a Papp A→B at 2 h, 10 µM in data set [7] of 17.9 ×10⁻⁶ cm/s. In data set [7], this compound yielded a Papp B→A at 2 h, 10 µM of 46.9 ×10⁻⁶ cm/s. In addition, in data set [8], the Emax at 72 h worked out at 54.8%.
